Results from patent US20120065126A1, “Pharmaceutical Compositions Containing Antifungal Peptides” (BASF SE, priority 2009, published 2012).
Where two headings read alike, the source gives them in different places.

Test system: M. furfur
Assay type: cell-based, Malassezia furfur
Conditions: shampoo base formulation 31-3 present
Method: The studies described hereinafter were conducted on the Malassezia furfur strain DSM 6170.
The minimum inhibitory concentration (MIC) of peptide P18 (H-KWKLFKKIPKFLHLAKKF-NH2; carboxyl terminus amidated) in the presence of shampoo base formulation 31-3 (Table 10) was tested in the following manner: […]
To prepare the shampoo base formulation, the Texapon NSO and Tego Betain L7 components were mixed and dissolved. NaOH was used to adjust the pH to pH 6-7.
The growth test was effected as follows: a shake culture containing M472 Pityrosporum medium was inoculated with M. furfur and incubated with shaking at 30° C. and 200 rpm overnight.
A 96-well microtiter plate was filled with 170 μl per well of M472 Pityrosporum medium and inoculated with 10 μl of M. furfur suspension from an overnight culture. This corresponded to an optical density of 0.02-0.1, measured at 620 nm. 20 μl of shampoo base formulation 31-3 were added to this mixture. Peptide P18 was dissolved with a concentration of 10 mM in DMSO.
The microtiter plate was incubated with shaking at 30° C.
After incubation for 24 hours, the colony forming units (CFU) were determined by resuspending 1 μl of each of the suspensions in 10 μl of medium, and then streaking them. After incubation over the course of 6 days, the colonies on the plate were counted. The experiment was conducted in double determination.

## H-KWKLFKKIPKFLHLAKKF-NH2 [P18, H-KWKLFKKIPKFLHLAKKF-NH2]
P18 25 μM
  Colony forming units (CFU) after incubation time of 24 hours: 80 CFU
P18 50 μM
  Colony forming units (CFU) after incubation time of 24 hours: 32 CFU
P18 100 μM
  Colony forming units (CFU) after incubation time of 24 hours: 0 CFU
P18 200 μM
  Colony forming units (CFU) after incubation time of 24 hours: 0 CFU
P18 300 μM
  Colony forming units (CFU) after incubation time of 24 hours: 0 CFU
P18 400 μM
  Colony forming units (CFU) after incubation time of 24 hours: 0 CFU
P18 500 μM
  Colony forming units (CFU) after incubation time of 24 hours: 0 CFU
